{
  "source": "patent US20240198337A1",
  "about": "“Bone Marrow on a Chip” (NEW YORK UNIVERSITY, priority 2021, published 2024)",
  "key": {"NF-κB": {"test_system": "NF-κB", "assay": "NF-κB activation (nuclear translocation) in B-ALL cells in Leukemia-on-a-Chip", "format": "cell-based, murine", "details": "B-ALL cells with niche cells", "text": "FIG. 8A through FIG. 8J depicts the results of niche cells promoting leukemia progression via cytokine and adhesive signaling. (FIG. 8A) The regional CXCR4 distribution on murine B-ALL cells cultured with or without niche cells. (FIG. 8B) The quantified result corresponding to (FIG. 8A). (FIG. 8C) Membrane-based ELISA analysis of CXCL12 expression level of niche cells (ECs and MSCs). (FIG. 8D) The quantified result corresponding to (FIG. 8C). (FIG. 8E) The representative image showing B-ALL cells co-localized with niche cells via VCAM-1/VLA-4 signaling. (FIG. 8F) The representative images showing nuclear translocation of NF-κB in B-ALL cells. (FIG. 8G) NF-κB activation in B-ALL cells with or without niche cells and under treatments with CXCR4 inhibitor, AMD3100 (AMD) and VLA-4 inhibitor, BIO5192 (BIO). The ratios were manually quantified from 3 experimental replicates (N>200). One-way ANOVA followed by Tukey's post hoc test. […] (FIG. 8I) The quantification of NF-κB activation in human NALM-6, 697, RS(4; 11), and UOCB1 blasts within their leukemia niches. The ratios were manually measured from 3 experimental replicates (N>150). (FIG. 8J) The quantification of NF-κB activation in patient-derived B-ALL blasts within engineered leukemia niches. The ratios for various B-ALL blasts were manually measured from 3 technical replicates (N>20). […]"}, "murine B-ALL cells [1]": {"test_system": "murine B-ALL cells", "assay": "Combinational drug regimens in the murine leukemic niche model", "format": "cell-based", "details": "5 μg/mL AMD, 1 μg/mL BIO or 10 μM BAY combined with NIL, PRE or VCR for 48 hr", "description": "The 3D biomimetic leukemic niche model was exploited to test the combinational drug regimens in vitro. Generally, the murine leukemic niche models were cultured for 24 hr after fabrication, then respectively administrated with various pharmaceuticals [i.e. 5 μg/mL AMD3100 (AMD), 1 μg/mL BIO5192 (BIO), and 10 μM BAY 11-7082 (BAY), correspondingly], and concomitantly treated with 1 μM NIL, 1 μM PRE or 0.1 μM VCR for 48 hr. The viability of B-ALL cells was measured by the DAPI staining as described above.\nThe following investigation concerned whether co-targeting niche-derived pro-survival signals (CXCR4/CXCL12, VCAM-1/VLA-4, and NF-κB signaling) using either CXCR4 inhibitor (AMD), VLA-4 inhibitor (BIO), or NF-κB inhibitor (BAY) could improve the responsiveness of B-ALL-targeting chemotherapeutics. B-ALL blasts and niche cells (containing ECs and MSCs) were co-cultured for 24 hr in the Leukemia-on-a-Chip, and then administered individual niche-targeting compounds in combination with either NIL, PRE or VCR for 48 hr, after which B-ALL cell viability was measured. […] The lack of response to VLA-4 treatment may be due to VLA-4 blockade broke the leukemia dormancy to compensate the B-ALL death."}, "murine B-ALL cells [2]": {"test_system": "murine B-ALL cells", "assay": "B-ALL cell adhesion onto niche cells with or without adhesion blockade", "format": "cell-based", "details": "VLA-4 blockade; 24 hours on niche cell monolayer", "description": "(FIG. 11A) Experimental setup for testing murine B-ALL cell adhesion onto niche cells [i.e. ECs (C166), MSCs (OP9), and osteoblasts (MC3T3)] with or without adhesion blockade. B-ALL cells were plated into the dishes with niche cell monolayer and cultured for 24 hours, followed by five times washing with warm PBS. The images were then taken with 20× objective. (FIG. 11B) Adhered B-ALL cells were manually counted and plotted as cell number per filed. Each condition has 3 replicates with >10 images being counted. One-way ANOVA followed by Tukey's post hoc test (n.s., not significant, *p<0.05, **p<0.01)."}, "murine Ph+ B-ALL cells [3]": {"test_system": "murine Ph+ B-ALL cells", "assay": "Drug resistance testing: B-ALL cell viability in 3D hydrogel devices (Calcein-AM/DAPI)", "format": "cell-based", "details": "NF-κB blockade"}, "murine Ph+ B-ALL cells [4]": {"test_system": "murine Ph+ B-ALL cells", "assay": "Drug resistance testing: B-ALL cell viability in 3D hydrogel devices (Calcein-AM/DAPI)", "format": "cell-based", "details": "NIL 1 μM, PRE 1 μM, VCR 0.1 μM; for viability of B-ALL cells in perivascular versus endosteal niche: 2-day treatment; for B-ALL eradication (viability): absence of niche cells; for B-ALL eradication (viability) / B-ALL drug-induced cell death (chemo-resistance): 48 hr; for B-ALL drug-induced cell death (chemo-resistance): presence of niche cells", "description": "The outcome of drugs was defined by the viability of B-ALL cells as a cytotoxic end point after drug treatment. B-ALL cells were cultured alone or co-cultured with niche cells in 3D hydrogel devices for 24 hr, and then incubated with 1 μM nilotinib (NIL, Cayman Chemical), 1 μM prednisone (PRE, Sigma), and 0.1 μM vincristine (VCR, Sigma) for 48 hr. The cell viability was quantitatively determined by using Calcein-AM (Thermo Fischer Scientific) and DAPI, which respectively stained the live and dead cells. Briefly, cells were rinsed thrice with PBS and incubated with Calcein-AM and DAPI ([…] and 5 μg/mL in PBS or medium) solution for 30 min at 37° C., followed by a final rinse with PBS. Afterward, cells were observed under a fluorescence microscope, and cellular viability was quantitatively measured by counting the number of objects in the green (live cells) and red (dead cells) channels. Untreated groups of B-ALL cells were used as controls to benchmark the drug resistance of different groups."}},
  "data": [
    {"smiles": "Cc1ccccc1NC(=O)Nc1ccc(CC(=O)N(C)[C@@H](CC(C)C)C(=O)NCC[C@H](NC(=O)[C@@H]2CCCN2S(=O)(=O)c2cc(Cl)cc(Cl)c2)C(=O)O)cc1", "note": "[BIO5192]", "values": [
      {"measurement": "nuclear translocation of NF-κB in B-ALL cells", "setting": "NF-κB", "value": "suppressed the nuclear translocation of NF-κB in B-ALL cells"},
      {"measurement": "responsiveness of B-ALL blasts to tumor-targeting agents (B-ALL killing) on niche co-targeting", "setting": "murine B-ALL cells [1]", "value": "no significant effect on the responsiveness of B-ALL blasts to tumor-targeting agents"},
      {"measurement": "intercellular adhesion of B-ALL cells onto niche cells", "setting": "murine B-ALL cells [2]", "value": "significantly decrease the intercellular adhesion of B-ALL cells onto niche cells"}
    ]},
    {"smiles": "Cc1ccc(S(=O)(=O)/C=C/C#N)cc1", "note": "[BAY 11-7082]", "values": [
      {"measurement": "B-ALL survival (cell viability)", "setting": "murine Ph+ B-ALL cells [3]; absence of niche cells", "value": "significantly decreased B-ALL survival"},
      {"measurement": "B-ALL survival (cell viability)", "setting": "murine Ph+ B-ALL cells [3]; co-culture with niche cells", "value": "partially rescued B-ALL cell survival from BAY treatment"},
      {"measurement": "responsiveness of B-ALL blasts to tumor-targeting agents (B-ALL killing) on niche co-targeting", "setting": "murine B-ALL cells [1]", "value": "significantly reversed the chemo-protective activity of niche cells"}
    ]},
    {"smiles": "c1cc(CN2CCCNCCNCCCNCC2)ccc1CN1CCCNCCNCCCNCC1", "note": "[AMD3100]", "values": [
      {"measurement": "nuclear translocation of NF-κB in B-ALL cells", "setting": "NF-κB", "value": "suppressed the nuclear translocation of NF-κB in B-ALL cells"},
      {"measurement": "responsiveness of B-ALL blasts to tumor-targeting agents (B-ALL killing) on niche co-targeting", "setting": "murine B-ALL cells [1]", "value": "significantly reversed the chemo-protective activity of niche cells"}
    ]},
    {"smiles": "C[C@]12C=CC(=O)C=C1CC[C@@H]1[C@@H]2C(=O)C[C@@]2(C)[C@H]1CC[C@]2(O)C(=O)CO", "note": "[prednisone]", "values": [
      {"measurement": "viability of B-ALL cells in perivascular versus endosteal niche", "setting": "murine Ph+ B-ALL cells [4]", "value": "a stronger dormancy and chemo-resistance of B-ALL cells in the endosteal niche"},
      {"measurement": "B-ALL eradication (viability)", "setting": "murine Ph+ B-ALL cells [4]", "value": "efficient B-ALL eradication"},
      {"measurement": "B-ALL drug-induced cell death (chemo-resistance)", "setting": "murine Ph+ B-ALL cells [4]", "value": "chemo-resistance phenomenon was confirmed"},
      {"measurement": "B-ALL drug-induced cell death (chemo-resistance)", "setting": "murine Ph+ B-ALL cells [4]; listed as PRE", "value": "partial rescue of drug-induced cell death"}
    ]},
    {"smiles": "Cc1cn(-c2cc(NC(=O)c3ccc(C)c(Nc4nccc(-c5cccnc5)n4)c3)cc(C(F)(F)F)c2)cn1", "note": "[nilotinib]", "values": [
      {"measurement": "viability of B-ALL cells in perivascular versus endosteal niche", "setting": "murine Ph+ B-ALL cells [4]", "value": "a stronger dormancy and chemo-resistance of B-ALL cells in the endosteal niche"},
      {"measurement": "B-ALL eradication (viability)", "setting": "murine Ph+ B-ALL cells [4]", "value": "efficient B-ALL eradication"},
      {"measurement": "B-ALL drug-induced cell death (chemo-resistance)", "setting": "murine Ph+ B-ALL cells [4]", "value": "chemo-resistance phenomenon was confirmed"},
      {"measurement": "B-ALL drug-induced cell death (chemo-resistance)", "setting": "murine Ph+ B-ALL cells [4]; listed as NIL", "value": "partial rescue of drug-induced cell death"}
    ]}
  ]
}
